# Experimental data taken from patent US9062046B2, “Substituted imidazoquinoline derivatives as kinase inhibitors” (Piramal Enterprises Limited, priority 2011, dated 2015).
# Key:
# [1] = tested on: A2780 (ovarian cell line); assay: Cytotoxicity assay (propidium iodide assay), A2780; type: cell-based; details: A2780 cells, 48 h treatment; for IC50 / inhibition at 1 µM: Homo sapiens
# Description: (§1) The assay was designed as in the reference, Anticancer Drugs, 2002, 13, 1-8, the disclosure of which is incorporated by reference for the teaching of the assay.
# (§2) Cells from cell lines A2780 (ovarian cell line) and PC3 (prostate cell line) (both from ATCC) were seeded at a density of 3000 cells/well in a white opaque 96-well plate. Following incubation at 37° C./5% CO2 for a period of 18-24 h, the cells were treated with various concentrations (stock solution was prepared in DMSO and subsequent dilutions were made in media as per ATCC guidelines) of the test compounds for a period of 48 h. At the end of treatment, the culture medium was discarded, the cells were washed with 1×PBS and 200 μl of 7 μg/ml propidium iodide was added to each well. The plates were frozen at −70° C. overnight. For analysis, the plates were warmed to RT, allowed to thaw and were read in PoleStar fluorimeter with the fluorescence setting. The percentage of viable cells in the non-treated set of wells was considered to be 100 and the percentage viability following treatment was calculated accordingly. IC50 values were calculated from graphs plotted using these percentages.
# [2] = tested on: PC3 (prostate cell line); assay: Cytotoxicity assay (propidium iodide assay), PC3; type: cell-based; details: PC3 cells, 48 h treatment; for IC50 / inhibition at 1 µM: Homo sapiens, PC-3
# Description: as §1, §2
Compound,IC50 [1] [µM],IC50 [2] [µM],inhibition at 1 µM ([1]; 1 μM) [%],inhibition at 1 µM ([2]; 1 μM) [%],also measured
"COc1ccc(-n2c(=NC#N)n(C)c3cnc4ccc(-c5cnc(NC(=O)OC(C)(C)C)c(C(F)(F)F)c5)cc4c32)cn1 [Example 123, tert-butyl 5-(2-(cyanoimino)-1-(6-methoxypyridin-3-yl)-3-methyl-2,3-dihydro-1H-imidazo[4,5-c]quinolin-8-yl)-3-(trifluoromethyl)pyridin-2-ylcarbamate]",≤ 0.5,≤ 0.5,,,
"Cn1c(=NC#N)n(-c2ccc(C(C)(C)C#N)nc2)c2c3cc(-c4ccncc4)ccc3ncc21 [Example 81, N-(1-(6-(2-cyanopropan-2-yl)pyridin-3-yl)-3-methyl-8-(pyridin-4-yl)-1H-imidazo[4,5-c]quinolin-2(3H)-ylidene)cyanamide]",≤ 0.5,≤ 0.5,,,
"N-(1-(6-methoxypyridin-3-yl)-3-methyl-8-(4-(trifluoromethyl)phenyl)-1H-imidazo[4,5-c]quinolin-2(3H)-ylidene)cyanamide [Example 43]",,,,,"% Inhibition at 1 μM, A2780 ([1]; 1 μM): + (<30%); % Inhibition at 1 μM, PC3 ([2]; 1 μM): + (<30%)"
"Cn1c(=NC#N)n(-c2ccc(C(C)(C)C#N)nc2)c2c3cc(-c4cc(F)cc(F)c4)ccc3ncc21 [Example 63, N-(1-(6-(2-cyanopropan-2-yl)pyridin-3-yl)-8-(3,5-difluorophenyl)-3-methyl-1H-imidazo[4,5-c]quinolin-2(3H)-ylidene)cyanamide]",,,30 to 70,< 30,
"COc1ccc(-n2c(=NC#N)n(C)c3cnc4ccc(-c5cccc(O)c5)cc4c32)cn1 [Example 38, N-(8-(3-hydroxyphenyl)-1-(6-methoxypyridin-3-yl)-3-methyl-1H-imidazo[4,5-c]quinolin-2(3H)-ylidene)cyanamide]",,,≥ 70,30 to 70,
"CCn1c(=NC#N)n(-c2ccc(C(C)(C)C#N)cc2)c2c3cc(-c4cccnc4)ccc3ncc21 [Example 86, N-(1-(4-(2-cyanopropan-2-yl)phenyl)-3-ethyl-8-(pyridin-3-yl)-1H-imidazo[4,5-c]quinolin-2(3H)-ylidene)cyanamide]",,,≥ 70,30 to 70,
"COc1ccc(-n2c(=NC#N)n(C)c3cnc4ccc(-c5ccc(O)cc5)cc4c32)cn1 [Example 46, N-(8-(4-hydroxyphenyl)-1-(6-methoxypyridin-3-yl)-3-methyl-1H-imidazo[4,5-c]quinolin-2(3H)-ylidene)cyanamide]",,,≥ 70,30 to 70,
"CCCC(CCC)C(=O)Nc1ncc(-c2ccc3ncc4c(c3c2)n(-c2ccc(C(C)(C)C#N)nc2)c(=NC#N)n4C)cc1C(F)(F)F [Example 136, N-(5-(2-(cyanoimino)-1-(6-(2-cyanopropan-2-yl)pyridin-3-yl)-3-methyl-2,3-dihydro-1H-imidazo[4,5-c]quinolin-8-yl)-3-(trifluoromethyl)pyridin-2-yl)-2-propylpentanamide]",,,≥ 70,30 to 70,
"COc1ccc(-n2c(=NC#N)n(C)c3cnc4ccc(-c5cccc(Cl)c5)cc4c32)cn1 [Example 28, N-(8-(3-chlorophenyl)-1-(6-methoxypyridin-3-yl)-3-methyl-1H-imidazo[4,5-c]quinolin-2(3H)-ylidene)cyanamide]",,,30 to 70,< 30,
"Cn1c(=NC#N)n(-c2ccc(C(C)(C)C#N)nc2)c2c3cc(-c4cccnc4F)ccc3ncc21 [Example 64, N-(1-(6-(2-cyanopropan-2-yl)pyridin-3-yl)-8-(2-fluoropyridin-3-yl)-3-methyl-1H-imidazo[4,5-c]quinolin-2(3H)-ylidene)cyanamide]",,,30 to 70,< 30,
"COc1ccc(-c2ccc3ncc4c(c3c2)n(-c2ccc(OC)nc2)c(=NC#N)n4C)cn1 [Example 48, N-(1,8-bis(6-methoxypyridin-3-yl)-3-methyl-1H-imidazo[4,5-c]quinolin-2(3H)-ylidene)cyanamide]",,,≥ 70,30 to 70,
"COc1ncc(-c2ccc3ncc4c(c3c2)n(-c2cncc(-c3ccccc3)c2)c(=NC#N)n4C)cc1N [Example 93, N-(8-(5-amino-6-methoxypyridin-3-yl)-3-methyl-1-(5-phenylpyridin-3-yl)-1H-imidazo[4,5-c]quinolin-2(3H)-ylidene)cyanamide]",0.5 to 2,0.5 to 2,,,
"COC(=O)c1cc(-c2ccc3ncc4c(c3c2)n(-c2ccc(C(C)(C)C#N)nc2)c(=NC#N)n4C)cnc1N [Example 137, Methyl 2-amino-5-(2-(cyanoimino)-1-(6-(2-cyanopropan-2-yl)pyridin-3-yl)-3-methyl-2,3-dihydro-1H-imidazo[4,5-c]quinolin-8-yl)nicotinate]",≤ 0.5,≤ 0.5,,,
"Cn1c(=NC#N)n(-c2ccc(C(C)(C)C#N)cc2)c2c3cc(-c4cc(C(F)(F)F)ccc4F)ccc3ncc21 [Example 87, N-(1-(4-(2-cyanopropan-2-yl)phenyl)-8-(2-fluoro-5-(trifluoromethyl)phenyl)-3-methyl-1H-imidazo[4,5-c]quinolin-2(3H)-ylidene)cyanamide]",,,30 to 70,< 30,
"COc1ccc(-c2ccc3ncc4c(c3c2)n(-c2ccc(C(C)(C)C#N)nc2)c(=NC#N)n4C)cn1 [Example 51, N-(1-(6-(2-cyanopropan-2-yl)pyridin-3-yl)-8-(6-methoxypyridin-3-yl)-3-methyl-1H-imidazo[4,5-c]quinolin-2(3H)-ylidene)cyanamide]",,,≥ 70,30 to 70,
"COc1ccc(-n2c(=NC#N)n(C)c3cnc4ccc(-c5cccc(C(F)(F)F)c5)cc4c32)cn1 [Example 41, N-(1-(6-methoxypyridin-3-yl)-3-methyl-8-(3-(trifluoromethyl)phenyl)-1H-imidazo[4,5-c]quinolin-2(3H)-ylidene)cyanamide]",,,30 to 70,30 to 70,
"COc1ccc(-n2c(=NC#N)n(C)c3cnc4ccc(-c5ccccc5OC(C)C)cc4c32)cn1 [Example 27, N-(8-(2-isopropoxyphenyl)-1-(6-methoxypyridin-3-yl)-3-methyl-1H-imidazo[4,5-c]quinolin-2(3H)-ylidene)cyanamide]",,,< 30,< 30,
"Cc1cc(-c2ccc3ncc4c(c3c2)n(-c2ccc(C(C)(C)C#N)nc2)c(=NC#N)n4C)cnc1N1CCN(C(=O)OC(C)(C)C)CC1 [Example 119, tert-butyl 4-(5-(2-(cyanoimino)-1-(6-(2-cyanopropan-2-yl)pyridin-3-yl)-3-methyl-2,3-dihydro-1H-imidazo[4,5-c]quinolin-8-yl)-3-methylpyridin-2-yl)piperazine-1-carboxylate]",,,≥ 70,≥ 70,
"Cn1c(=NC#N)n(-c2ccc(C(C)(C)C#N)cc2)c2c3cc(-c4cnc5ccccc5c4)ccc3ncc21 [Example 7, N-(1-(4-(2-cyanopropan-2-yl)phenyl)-3-methyl-8-(quinolin-3-yl)-1H-imidazo[4,5-c]quinolin-2(3H)-ylidene)cyanamide]",≤ 0.5,≤ 0.5,,,
"Cn1c(=NC#N)n(-c2ccc3ncccc3c2)c2c3cc(-c4cnc(N)c(C(F)(F)F)c4)ccc3ncc21 [Example 11, N-(8-(6-amino-5-(trifluoromethyl)pyridin-3-yl)-3-methyl-1-(quinolin-6-yl)-1H-imidazo[4,5-c]quinolin-2(3H)-ylidene)cyanamide]",≤ 0.5,≤ 0.5,,,
"Cn1c(=NC#N)n(-c2ccc(C#N)nc2)c2c3cc(-c4cnc(N)c(C(F)(F)F)c4)ccc3ncc21 [Example 10, N-(8-(6-amino-5-(trifluoromethyl)pyridin-3-yl)-1-(6-cyanopyridin-3-yl)-3-methyl-1H-imidazo[4,5-c]quinolin-2(3H)-ylidene)cyanamide]",≤ 0.5,≤ 0.5,,,
"Cn1c(=NC#N)n(-c2ccc(C(C)(C)C#N)cc2)c2c3cc(-c4ccc(N5CCOCC5)nc4)ccc3ncc21 [Example 90, N-(1-(4-(2-cyanopropan-2-yl)phenyl)-3-methyl-8-(6-morpholinopyridin-3-yl)-1H-imidazo[4,5-c]quinolin-2(3H)-ylidene)cyanamide]",,,≥ 70,30 to 70,
"COc1ccc(-n2c(=NC#N)n(C)c3cnc4ccc(-c5cncc(C(F)(F)F)c5)cc4c32)cn1 [Example 25, N-(1-(6-methoxypyridin-3-yl)-3-methyl-8-(5-(trifluoromethyl)pyridin-3-yl)-1H-imidazo[4,5-c]quinolin-2(3H)-ylidene)cyanamide]",,,≥ 70,30 to 70,
"COc1ccc(-n2c(=NC#N)n(C)c3cnc4ccc(-c5cnc6ccccc6c5)cc4c32)cn1 [Example 3, N-(1-(6-methoxypyridin-3-yl)-3-methyl-8-(quinolin-3-yl)-1H-imidazo[4,5-c]quinolin-2(3H)-ylidene)cyanamide]",≤ 0.5,≤ 0.5,,,
"COc1ccc(-n2c(=NC#N)n(C)c3cnc4ccc(-c5cnc(OC)c(N)c5)cc4c32)c(OC)c1 [Example 13, N-(8-(5-amino-6-methoxypyridin-3-yl)-1-(2,4-dimethoxyphenyl)-3-methyl-1H-imidazo[4,5-c]quinolin-2(3H)-ylidene)cyanamide]",,,≥ 70,≥ 70,
"COc1ccc(-n2c(=NC#N)n(C)c3cnc4ccc(-c5cccc(C)c5)cc4c32)cn1 [Example 29, N-(1-(6-methoxypyridin-3-yl)-3-methyl-8-m-tolyl-1H-imidazo[4,5-c]quinolin-2(3H)-ylidene)cyanamide]",,,30 to 70,< 30,
